What was measured:
[1] = target: T1, NS5B proteins of HCV genotype 1b (Con1) (Hepatitis C virus genotype 1b, UniProt Q9WMX2); assay: HCV NS5B RdRp enzyme assay; assay type: biochemical; settings: 1b enzyme
T1 construct: Each untagged protein was expressed with an 18 amino acid C-terminal truncation to enhance the solubility; made in house; host or cells: E. coli BL21(DE3), pET21a
Procedure: HCVNS5B RdRp Cloning, Expression, and Purification.
The cDNA encoding NS5B proteins of HCV genotype 1b (Con1), a genotype 1b variant with amino acid 316 mutated from cysteine to asparagine, and genotype 2a (JFH-1), were cloned into the pET21a expression vector. Each untagged protein was expressed with an 18 amino acid C-terminal truncation to enhance the solubility. The E. coli competent cell line BL21(DE3) was used for expression of the protein. Cultures were grown at 37° C. for ˜4 hours until the cultures reached an optical density of 2.0 at 600 nm. The cultures were cooled to 20° C. and induced with 1 mM IPTG. Fresh ampicillin was added to a final concentration of 50 μg/mL and the cells were grown overnight at 20° C.
Cell pellets (3 L) were lysed for purification to yield 15-24 mgs of purified NS5B. The lysis buffer consisted of 20 mM Tris-HCl, pH 7.4, 500 mM NaCl, 0.5% triton X-100, 1 mM DTT, 1 mM EDTA, 20% glycerol, 0.5 mg/mL lysozyme, 10 mM MgCl2, 15 ug/mL deoxyribonuclease I, and Complete TM protease inhibitor tablets (Roche). After addition of the lysis buffer, frozen cell pellets were resuspended using a tissue homogenizer. To reduce the viscosity of the sample, aliquots of the lysate were sonicated on ice using a microtip attached to a Branson sonicator. The sonicated lysate was centrifuged at 100,000×g for 30 minutes at 4° C. and filtered through a 0.2 μm filter unit (Corning).
The protein was purified using two sequential chromatography steps: Heparin sepharose CL-6B and polyU sepharose 4B. The chromatography buffers were identical to the lysis buffer but contained no lysozyme, deoxyribonuclease I, MgCl2 or protease inhibitor and the NaCl concentration of the buffer was adjusted according to the requirements for charging the protein onto the column. Each column was eluted with a NaCl gradient which varied in length from 5-50 column volumes depending on the column type. After the final chromatography step, the resulting purity of the enzyme is >90% based on SDS-PAGE analysis. The enzyme was aliquoted and stored at −80° C.
HCVNS5B RdRp Enzyme Assay.
An on-bead solid phase homogeneous assay was used in a 384-well format to assess NS5B inhibitors (WangY-K, Rigat K, Roberts S, and Gao M (2006) Anal Biochem, 359: 106-111). The biotinylated oligo dT12 primer was captured on streptavidin-coupled imaging beads (GE, RPNQ0261) by mixing primer and beads in 1× buffer and incubating at room temperature for three hours. Unbound primer was removed after centrifugation. The primer-bound beads were resuspended in 3× reaction mix (20 mM Hepes buffer, pH 7.5, dT primer coupled beads, poly A template, ^3H-UTP, and RNAse inhibitor (Promega N2515)). Compounds were serially diluted 1:3 in DMSO and aliquoted into assay plates. Equal volumes (10 μL) of water, 3× reaction mix, and enzyme in 3× assay buffer (60 mM Hepes buffer, pH 7.5, 7.5 mM MgCl2, 7.5 mM KCl, 3 mM DTT, 0.03 mg/mL BSA, 6% glycerol) were added to the diluted compound on the assay plate. Final concentration of components in 384-well assay: 0.36 nM template, 15 nM primer, 0.29 μM ^3H-UTP (0.3 μCi), 1.6 U/μL RNAse inhibitor, 7 nM NS5B enzyme, 0.01 mg/mL BSA, 1 mM DTT, and 0.33 μg/μL beads, 20 mM Hepes buffer, pH 7.5, 2.5 mM MgCl2, 2.5 mM KCl, and 0.1% DMSO.
Reactions were allowed to proceed from 4 to 24 hours at 30° C. For 24 hour reactions, enzyme and inhibitors were pre-incubated for 24 hours before adding template and primer. Reactions were terminated by the addition of 50 mM EDTA (10 μL). After incubating for at least 15 minutes, plates were read on an Amersham LEADseeker multimodality imaging system.
IC50 values for compounds were determined using ten different [I]. IC50 values were calculated from the inhibition using the four-parameter logistic formula y=A+((B−A)/(1+((C/x)^D))), where A and B denote minimal and maximal % inhibition, respectively, C is the IC50, D is hill slope and x represents compound concentration.

[2] = test system: genotype 1b (Con-1) HCV replicon in Huh-7 cells; assay: HCV replicon luciferase assay; assay type: cell-based; settings: 1b replicon, Huh-7, Renilla luciferase, 3 days incubation
Summary of the method: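 Huh-7 cells carrying Con-1 genotype 1b replicon with Renilla luciferase reporter seeded onto titrated compound in DMEM, 4% FBS, 0.5% DMSO, 3 days at 37 °C. Luciferase read with EnduRen substrate (7.5 μM final) after ≥1 h; EC50 by four-parameter logistic fit.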

HCV [3] = settings: cited from earlier work
HCV [4] = settings: combination therapy; cited from earlier work

T1 sequence (Q9WMX2 2420-2992): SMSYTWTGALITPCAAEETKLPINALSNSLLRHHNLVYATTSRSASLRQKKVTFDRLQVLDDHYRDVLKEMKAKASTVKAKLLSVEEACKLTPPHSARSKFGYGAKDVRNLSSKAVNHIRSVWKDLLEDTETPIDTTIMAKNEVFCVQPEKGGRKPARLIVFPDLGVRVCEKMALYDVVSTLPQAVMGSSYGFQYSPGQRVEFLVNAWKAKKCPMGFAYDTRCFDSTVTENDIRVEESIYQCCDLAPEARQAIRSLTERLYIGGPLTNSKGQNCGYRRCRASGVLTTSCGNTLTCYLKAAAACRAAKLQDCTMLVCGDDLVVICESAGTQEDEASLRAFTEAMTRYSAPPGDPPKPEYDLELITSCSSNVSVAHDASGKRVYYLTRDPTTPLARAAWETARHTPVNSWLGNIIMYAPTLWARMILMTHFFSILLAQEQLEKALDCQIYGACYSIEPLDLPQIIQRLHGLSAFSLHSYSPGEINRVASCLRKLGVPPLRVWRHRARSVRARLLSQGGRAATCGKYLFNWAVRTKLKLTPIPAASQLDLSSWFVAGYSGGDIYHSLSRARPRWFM

Molecule | IC50 [1] [nM] | EC50 ([2]; Hepatitis C virus, Huh-7, 72 h) [nM] | also measured
CCOc1cc2oc(-c3ccc(F)cc3)c(C(=O)NC)c2cc1-c1cccc(C(=O)NC2(c3ncccn3)CC(OC(F)F)C2)c1 (single isomer, unassigned) [Example 67b, 5-(3-((3-(Difluoromethoxy)-1-(pyrimidin-2-yl)cyclobutyl)carbamoyl)phenyl)-6-ethoxy-2-(4-fluorophenyl)-N-methylbenzofuran-3-carboxamide] | 2.11 |  | EC50 [2]: 6.8 nM
CNC(=O)c1c(-c2ccc(F)cc2)oc2ccc(-c3cc(C(=O)NC4(c5ncccn5)CC(=O)C4)ccc3C)c(F)c12 [Example 6, 4-Fluoro-2-(4-fluorophenyl)-N-methyl-5-(2-methyl-5-((3-oxo-1-(pyrimidin-2-yl)cyclobutyl)carbamoyl)phenyl)benzofuran-3-carboxamide] | 10 | 20 | 
CNC(=O)c1c(-c2ccc(F)cc2)oc2ccc(-c3cc(C(=O)NC4(c5ncccn5)CC(OC)(OC)C4)ccc3C)c(F)c12 [Example 7, 5-(5-((3,3-Dimethoxy-1-(pyrimidin-2-yl)cyclobutyl)carbamoyl)-2-methylphenyl)-4-fluoro-2-(4-fluorophenyl)-N-methylbenzofuran-3-carboxamide] | 10 | 60 | 
CNC(=O)c1c(-c2ccc(F)cc2)oc2ccc(-c3cc(C(=O)NC4(c5ncccn5)CC(OC)(OC)C4)cc(F)c3C)c(F)c12 [Example 8, 5-(5-(3,3-Dimethoxy-1-(pyrimidin-2-yl)cyclobutylcarbamoyl)-3-fluoro-2-methylphenyl)-4-fluoro-2-(4-fluorophenyl)-N-methylbenzofuran-3-carboxamide] | 40 | 20 | 
CNC(=O)c1c(-c2ccc(F)cc2)oc2ccc(-c3cc(C(=O)NC4(c5ncccn5)CC(OC)(OC)C4)c(OC)cc3C)c(F)c12 [Example 14, 5-(5-((3,3-Dimethoxy-1-(pyrimidin-2-yl)cyclobutyl)carbamoyl)-4-methoxy-2-methylphenyl)-4-fluoro-2-(4-fluorophenyl)-N-methylbenzofuran-3-carboxamide] | 30 | 20 | 
CNC(=O)c1c(-c2ccc(F)cc2)oc2ccc(-c3cc(C(=O)NC4(c5ncccn5)CC(F)(F)C4)ccc3C)c(F)c12 [Example 15, 5-(5-((3,3-Difluoro-1-(pyrimidin-2-yl)cyclobutyl)carbamoyl)-2-methylphenyl)-4-fluoro-2-(4-fluorophenyl)-N-methylbenzofuran-3-carboxamide] | 30 | 30 | 
CNC(=O)c1c(-c2ccc(F)cc2)oc2ccc(-c3cc(C(=O)NC4(c5ncccn5)CC(F)C4)ccc3C)c(F)c12 (stereo not drawn) [Example 16, 4-Fluoro-5-(5-(3-fluoro-1-(pyrimidin-2-yl)cyclobutylcarbamoyl)-2-methylphenyl)-2-(4-fluorophenyl)-N-methylbenzofuran-3-carboxamide] | 30 | 6.62 | 
CNC(=O)c1c(-c2ccc(F)cc2)oc2ccc(-c3cc(C(=O)NC4(c5ncccn5)CC(F)(F)C4)cc(F)c3C)c(F)c12 [Example 17, 5-(5-((3,3-Difluoro-1-(pyrimidin-2-yl)cyclobutyl)carbamoyl)-3-fluoro-2-methylphenyl)-4-fluoro-2-(4-fluorophenyl)-N-methylbenzofuran-3-carboxamide] | 250 | 10 | 
CNC(=O)c1c(-c2ccc(F)cc2)oc2ccc(-c3cc(C(=O)NC4(c5ncccn5)CC(F)(F)C4)c(OC)cc3C)c(F)c12 [Example 18, 5-(5-(3,3-Difluoro-1-(pyrimidin-2-yl)cyclobutylcarbamoyl)-4-methoxy-2-methylphenyl)-4-fluoro-2-(4-fluorophenyl)-N-methylbenzofuran-3-carboxamide] | 140 | 10 | 
CNC(=O)c1c(-c2ccc(F)cc2)oc2ccc(-c3cc(C(=O)NC4(c5ncccn5)CC(F)C4)c(OC)cc3C)c(F)c12 (stereo not drawn) [Example 19, 4-Fluoro-5-(5-(3-fluoro-1-(pyrimidin-2-yl)cyclobutylcarbamoyl)-4-methoxy-2-methylphenyl)-2-(4-fluorophenyl)-N-methylbenzofuran-3-carboxamide] | 120 | 5.26 | 
CNC(=O)c1c(-c2ccc(F)cc2)oc2ccc(-c3cc(C(=O)NC4(c5ncccn5)CC(F)C4)cc(F)c3C)c(F)c12 (stereo not drawn) [Example 20, 4-Fluoro-5-(3-fluoro-5-(3-fluoro-1-(pyrimidin-2-yl)cyclobutylcarbamoyl)-2-methylphenyl)-2-(4-fluorophenyl)-N-methylbenzofuran-3-carboxamide] | 90 | 6.16 | 
CCN(c1cc2oc(-c3ccc(F)cc3)c(C(=O)NC)c2cc1-c1cccc(C(=O)NC2(c3ncccn3)CC(F)C2)c1)S(C)(=O)=O (stereo not drawn) [Example 25, 6-(N-ethylmethylsulfonamido)-5-(3-((3-fluoro-1-(pyrimidin-2-yl)cyclobutyl)carbamoyl)phenyl)-2-(4-fluorophenyl)-N-methylbenzofuran-3-carboxamide] | 1.37 | 5.29 | 
CNC(=O)c1c(-c2ccc(F)cc2)oc2cc(CCC(F)(F)F)c(-c3ccc(F)c(C(=O)NC4(c5ncccn5)CC(OC(F)F)C4)c3)cc12 (stereo not drawn) [Example 42, 5-(3-((3-(Difluoromethoxy)-1-(pyrimidin-2-yl)cyclobutyl)carbamoyl)-4-fluorophenyl)-2-(4-fluorophenyl)-N-methyl-6-(3,3,3-trifluoropropyl)benzofuran-3-carboxamide] | 7.6 | 5.73 | 
CNC(=O)c1c(-c2ccc(F)cc2)oc2cc(CCC(F)(F)F)c(-c3ccc(OC)c(C(=O)NC4(c5ncccn5)CC(OC(F)F)C4)c3)cc12 (stereo not drawn) [Example 43, 5-(3-((3-(Difluoromethoxy)-1-(pyrimidin-2-yl)cyclobutyl)carbamoyl)-4-methoxyphenyl)-2-(4-fluorophenyl)-N-methyl-6-(3,3,3-trifluoropropyl)benzofuran-3-carboxamide] | 10 | 5.6 | 
CCCc1cc2oc(-c3ccc(F)cc3)c(C(=O)NC)c2cc1-c1cccc(C(=O)NC2(c3ncccn3)CC(OC(F)(F)F)C2)c1 (stereo not drawn) [Example 44, 2-(4-Fluorophenyl)-N-methyl-6-propyl-5-(3-((1-(pyrimidin-2-yl)-3-(trifluoromethoxy)cyclobutyl)carbamoyl)phenyl)benzofuran-3-carboxamide] | 5.87 | 9.51 | 
CNC(=O)c1c(-c2ccc(F)cc2)oc2cc(N(CCO)S(C)(=O)=O)c(C3CC3)cc12 [HCV-796] |  |  | hepatic toxicity (HCV [3]; extended dosing of the combination regimens): hepatic toxicity observed; HCV RNA levels in patients (HCV [3]; patients, transient as single agent, more robust with interferon and ribavirin): reduce HCV RNA levels
alpha-interferon and ribavirin |  |  | sustained efficacy, share of patients (HCV [4]): 40%

— patent US11161837B2, “Benzofuran derivatives for the treatment of hepatitis C” (BRISTOL-MYERS SQUIBB COMPANY, priority 2016, dated 2021)
